What was measured:
[1] = test system: MM cell lines NCI-H929, MM1.R, RPMI-8226, KMS-18, KMS-12-BM; experiment: ALAMAR BLUE viability, panel of MM cell lines; assay type: cell-based
Procedure: RPMI-8226 and NCI-H929 cells were cultured in RPMI-1640 supplemented with 10% fetal bovine serum, penicillin, streptomycin, and plasmocin in 5% CO2 humidified incubator. HEK-293T cells were cultured in DMEM containing 10% fetal calf serum, 10 units/mL penicillin, and 10 μg/mL streptomycin in a 7% CO2 humidified incubator. Viability of multiple myeloma cells was measured with ALAMAR BLUE mitochondrial dye conversion assay. Viability of peripheral blood mononuclear cells (PBMNCs) was measured using CELL TITER-GLO luminescent cell viability assay (Promega), which is based on quantification of ATP present in the cells. Caspase-3/7 activity was measured using APO-ONE 3/7 homogeneous assay (Promega).
In a parallel set of experiments, it was tested whether co-inhibiting caspase-like and trypsin-like sites suffices to induce cytotoxicity in the absence of inhibition of the chymotrypsin-like sites and whether such dual inhibition is a stronger sensitizer to LU-005 than inhibition of the trypsin-like sites alone. Four additional myeloma cell lines, MM1.R, RPMI-8226, KMS-18, and KMS-12-BM, were selected for these experiments. These cell lines vary up to 40-fold in their sensitivity to bortezomib and NC-005 (Britton, et al. (2009) supra). In all experiments, NC-022 was used at a concentration that inhibited trypsin-like activity by more than 90% after a 6-hour incubation.

cathepsin D = target: T1, cathepsin D (Homo sapiens, UniProt P07339); experiment: Cathepsin D activity assay (SENSOLYTE 520); assay type: cell-based; settings: concentrations as high as 27 μM
T1 construct: endogenous in cells
T1 sequence (P07339 65-412): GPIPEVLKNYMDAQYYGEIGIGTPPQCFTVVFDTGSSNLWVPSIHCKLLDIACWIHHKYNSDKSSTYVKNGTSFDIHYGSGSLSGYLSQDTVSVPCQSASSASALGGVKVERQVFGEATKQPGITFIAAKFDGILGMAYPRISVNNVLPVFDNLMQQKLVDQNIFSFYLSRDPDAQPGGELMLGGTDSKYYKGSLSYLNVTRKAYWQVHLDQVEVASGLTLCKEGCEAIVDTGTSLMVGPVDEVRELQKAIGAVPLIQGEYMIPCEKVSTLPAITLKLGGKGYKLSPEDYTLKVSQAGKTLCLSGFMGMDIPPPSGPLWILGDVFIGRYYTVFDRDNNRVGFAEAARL
Procedure: Cathepsin B, H, L, S activity was measured with pan-cathepsin substrate Z-FR-amc (Kirschke & Wiederanders (1994) Methods Enzymol. 244:500-11) in extracts of cytosol-less cells at pH 6.0 (Screen, et al. (2010) supra). Cathepsin D activity was measured in cytosol-less extracts using SENSOLYTE 520 Cathepsin D Fluorometric Assay Kit (AnaSpec). Combined cathepsin D and E activity was measured using the same kit, in which cathepsin D substrate provided with the kit was replaced with 7-Methoxycoumarin-[…](Dnp)-X′-NH2 (SEQ ID NO:10; where “X′” stand for D-Arg) internally quenched fluorogenic substrate of cathepsin D and E. In this case, pH 3.0 assay buffer used for cell extraction. All activity observed using both procedures was inhibited by more than 98% by specific inhibitor of aspartic proteases pepstatin A.

[2] = target: T2, chymotrypsin-like site of 26S proteasomes (Oryctolagus cuniculus, UniProt G1T4Q9); experiment: Inhibition of purified 26S proteasomes, substrate Suc-LLVY-amc; assay type: biochemical, rabbit; settings: >>30 no inhibition at 30 μM, >30 inhibition between 10 and 50% at 30 μM, read-out: IC50 for sites in 26S proteasomes: Chym-L
T2 sequence (G1T4Q9 1-263): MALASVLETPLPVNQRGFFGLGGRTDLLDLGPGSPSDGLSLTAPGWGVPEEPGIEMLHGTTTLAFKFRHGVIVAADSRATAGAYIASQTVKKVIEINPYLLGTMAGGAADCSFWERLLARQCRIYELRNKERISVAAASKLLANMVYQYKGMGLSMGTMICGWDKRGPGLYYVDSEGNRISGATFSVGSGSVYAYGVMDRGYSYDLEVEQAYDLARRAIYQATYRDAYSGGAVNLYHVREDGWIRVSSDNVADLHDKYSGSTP

## Cc1c(O)cccc1C(=O)N[C@H](C(=O)N[C@@H](CO)C(=O)N[C@@H](CCCNC(=N)N)C(=O)[C@@]1(C)CO1)C(C)C [NC-022, HMB-Val-Ser-Arg-ek]
[1]; NCI-H929 and KMS-12-BM
  sensitization to LU-005 compared with NC-001: more potent sensitizer than NC-001
[1]; all MM cell lines, NC-022 at concentration inhibiting trypsin-like activity >90% after 6 h
  reduction of the IC50 for LU-005: 4-10 fold
[1]; continuous exposure to mixture of NC-022 and NC-001, both sites blocked by more than 90%
  reduction of cell viability: 20-50%
[1]; mixture of NC-001 and NC-022 after 1 hour LU-005
  sensitization of MM cells to LU-005: much stronger sensitizer than NC-022 alone
Cathepsin D
  inhibition of cathepsin D: did not inhibit
[2]
  IC50: 1700 nM

Reference: patent US8609610B2, “Inhibitors of the trypsin-like site of the proteasome and methods of use thereof” (Trustees of Dartmouth College, priority 2011, dated 2013)
